Structures can show the parent of a compound that is named as a salt.
Experiments:
[1] = system: Trichophyton mentagrophytes CDC27; experiment: in vitro antifungal activity, Trichophyton mentagrophytes (MIC); format: cell-based; conditions: 35° C., 48 hours, RPMI 1640 plus 10% fetal calf serum, 95-100% inhibition of growth, read-out: minimum inhibitory concentration (MIC), T.m.
Experimental: (§1) The antifungal activity was assayed in vitro against Candida abicans A26, Trichophyton mentagrophytes CDC27, and Aspergillus flavus M152. The inocula, previously frozen under liquid nitrogen in a lactose, glycerol and water solution, were standardized by counting spores with a hemocytometer. Final concentrations (C. albicans, 1×10^5 cells/m; T. mentagrophytes, 1×10^6 cells/ml; A. flavus, 1×10^5 cells/ml) in RPMI 1640 plus 10% fetal calf serum were added to each of the 96 wells of a microtiter plate (100 μl/well).The compounds to be tested were solubilized in either water or ethanol and added to the microtiter wells in serial dilutions to give final concentrations in the range 0.039-20 μg/ml. The plates were incubated at 35° C. for 48 hours. The minimum inhibitory concentration (MIC) values were determined as the highest dilution showing 95-100% inhibition of growth.
(§2) ^a Minimum inhibitory concentration expressed in μg/ml
^d T.m. means Trichophyton mentagrophytes CDC27

Candida albicans A26 = experiment: in vitro antifungal activity, Candida albicans (MIC); format: cell-based; conditions: 35° C., 48 hours, RPMI 1640 plus 10% fetal calf serum, 95-100% inhibition of growth, read-out: minimum inhibitory concentration (MIC), C.a.
Experimental: as §1, §2
^b C.a. means Candida albicans A26

Aspergillus flavus M152 = experiment: in vitro antifungal activity, Aspergillus flavus (MIC); format: cell-based; conditions: 35° C., 48 hours, RPMI 1640 plus 10% fetal calf serum, 95-100% inhibition of growth, read-out: minimum inhibitory concentration (MIC), A.f.
Experimental: as §1, §2
^c A.f. means Aspergillus flavus M152

[2] = system: thromboplastin clotting time in human plasma; experiment: prothrombin time test (thromboplastin clotting time in human plasma); format: biochemical; conditions: 37° C., human plasma
Experimental: Briefly, to 0.1 ml of each of human plasma, normal saline and thromboplastin was added 0.03 ml of the test compound of the present invention (2 mg/ml in 50 percent methanol). The clotting time was measured at 37° C. with a Fibrometer.
^a Expressed in seconds
^b Concentration of compound tested in micrograms per milliliter of […]

solubility in methanol = format: physicochemical
[3] = 22 micrograms per milliliter of plasma
[4] = 45 micrograms per milliliter of plasma
[5] = 90 micrograms per milliliter of plasma
[6] = 180 micrograms per milliliter of plasma

SMILES | MIC [1] | MIC (Candida albicans A26) | MIC (Aspergillus flavus M152) | plasma prothrombin time ([2]; 11 micrograms per milliliter of plasma) | plasma prothrombin time [2, 3] | plasma prothrombin time [2, 4] | plasma prothrombin time [2, 5] | plasma prothrombin time [2, 6] | solubility in methanol (solubility in methanol)
CCCCCCOc1ccc(CC(CN)c2ccccc2)cc1 (stereo not drawn) [Example 1, 4-(Hexyloxy)-β-phenylbenzenepropanamine] | 10 µg/mL | 10 µg/mL | 10 µg/mL | 32 s | 43 s | 91 s | > 300 s | > 300 s | –
CCCCCCCCOc1ccc(CC(CN)c2ccccc2)cc1 (stereo not drawn) [Example 2, 4-(Octyloxy)-β-phenylbenzenepropanamine] | 20 µg/mL | 20 µg/mL | 10 µg/mL | – | 38 s | 79 s | > 300 s | > 300 s | –
CCCCCOc1ccc(CC(CN)c2ccccc2)cc1.Cl (stereo not drawn) [Example 4, 4-(Pentyloxy)-β-phenylbenzenepropanamine hydrochloride] | 5 µg/mL | 10 µg/mL | 5 µg/mL | – | – | 37 s | 91 s | > 300 s | –
CCCCOc1ccc(CC(CN)c2ccccc2)cc1.Cl (stereo not drawn) [Example 6, 4-(Butyloxy)-β-phenylbenzenepropanamine hydrochloride] | 5 µg/mL | 10 µg/mL | 5 µg/mL | – | 20 s | 26 s | 46 s | 83 s | –
CCCCCCOc1ccc(CC(CN)c2ccc(OC)c(OC)c2)cc1 (stereo not drawn) [Example 16, .varies.-(Hexyloxy)-β-(3,4-dimethoxy)phenylbenzenepropanamine hydrochloride] | 10 µg/mL | 20 µg/mL | 10 µg/mL | – | 27 s | 57 s | 81 s | 235 s | –
CCCCCCCOc1ccc(CC(CN)c2ccc(OC)cc2)cc1 (stereo not drawn) [Example 21, 4-(Heptyloxy)-β-(4-methoxy)phenylbenzenepropanamine] | – | – | – | – | – | – | – | – | insoluble
Cl.NCC(Cc1cccc2ccccc12)c1ccccc1 (stereo not drawn) [Example 22, β-Phenyl-1-naphthalenepropanamine hydrochloride] | 10 µg/mL | 20 µg/mL | 10 µg/mL | – | – | – | – | > 300 s | –
CCCCCCOc1ccc(CC(CN)c2ccc(F)cc2)cc1 (stereo not drawn) [Example 26, 4(Hexyloxy)-β-(4-fluorophenyl)benzenepropanamine] | 10 µg/mL | 10 µg/mL | 5 µg/mL | – | – | 29 s | 67 s | 500 s | –
CC(CCc1ccc(OCCC2CCCCC2)cc1)NC1CCCC(C(F)(F)F)C1 (stereo not drawn) [Example 39, 4-(2-Cyclohexylethoxy)-α-methyl-N-[3-(trifluoromethyl)-cyclohexyl]benzenepropanamine hydrochloride] | > 20 µg/mL | 5 µg/mL | > 20 µg/mL | – | – | 90 s | – | – | –
CCCCOc1ccc(CCC(C)N(C)C)cc1 (stereo not drawn) [Example 41, 4-Butoxy-N,N,α-trimethylbenzenepropanamine hydrochloride] | 0.078 µg/mL | 0.156 µg/mL | 1.25 µg/mL | – | – | 21 s | 24 s | 41 s | –
CC(CCc1ccc(OCc2ccccc2)cc1)N(C)C (stereo not drawn) [Example 84, N,N,α-Trimethyl-4-(phenylmethoxy)benzene propanamine hydrochloride] | 0.312 µg/mL | 0.156 µg/mL | 10 µg/mL | – | – | – | – | – | –

Reference: patent US5135955A, “Propanamine derivatives” (Eli Lilly and Company, priority 1989, dated 1992)
